{"source": "patent US20170165294A1", "about": "“METHOD AND APPARATUS FOR ADMINISTERING GASES INCLUDING NITRIC OXIDE TO ADDRESS FIBROSIS” (priority 2015, published 2017)", "key": {"[1]": {"test_system": "brain ischemia-reperfusion (I/R)", "conditions": "inhaled; oxidative stress induced by focal ischemia-reperfusion; cited from earlier work"}, "[2]": {"test_system": "polymicrobial sepsis", "experiment": "Polymicrobial sepsis-induced lung injury", "assay_type": "in vivo", "conditions": "H2 and/or NO treatment", "excerpt": "However until applicants' discovery, there has not been a successful combination of hydrogen gas with breathing gas using the claimed apparatus and methods. Applicants have discovered that NO's effect as an antioxidant may be enhanced by eliminating highly reactive by-products of NO inhalation such as peroxynitrite, by adding H2 to inhaled NO gas."}, "[3]": {"test_system": "chrondrocytes", "conditions": "cited from earlier work"}, "[4]": {"test_system": "NF-κB", "experiment": "LPS-induced pulmonary NF-κB activation", "assay_type": "in vivo, mice", "conditions": "H2 and/or NO treatment"}, "[5]": {"test_system": "mice with intratracheal administration of LPS", "experiment": "LPS-induced lung injury in mice (intratracheal LPS)", "assay_type": "in vivo", "conditions": "for lung injury: 2% H2 and/or 20 ppm NO for 3 hours starting at 5 minutes or 3 hours after LPS administration; for pulmonary inflammation / cell apoptosis: H2 and/or NO treatment; for cell apoptosis: pulmonary"}, "[6]": {"test_system": "neonatal piglets", "conditions": "cited from earlier work; for lung collagen accumulation: short-term inhaled exposure, neonatal piglets"}, "[7]": {"test_system": "rats", "conditions": "inhaled; cited from earlier work"}, "[8]": {"test_system": "myofibroblasts", "conditions": "rat, in vivo; cited from earlier work"}, "[9]": {"test_system": "HIF", "conditions": "cited from earlier work"}, "[10]": {"test_system": "neonatal rats", "conditions": "compared with control rats; cited from earlier work"}}, "note": "Like-named read-outs stand apart in the source and are kept apart here."}
{"smiles": "[HH]", "note": "[H2, hydrogen]", "values": [{"measurement": "brain injury", "setting": "[1]", "result": "markedly suppressed"}, {"measurement": "lung injury in polymicrobial sepsis", "setting": "[2]", "result": "significantly attenuated"}, {"measurement": "generation of hydroxyl radicals and peroxynitrite", "setting": "[3]", "result": "selectively reduce"}, {"measurement": "LPS-induced pulmonary early and late NF-κB activation", "setting": "[4]", "result": "inhibited"}, {"measurement": "lung injury", "setting": "[5]", "result": "significantly improved"}, {"measurement": "pulmonary inflammation", "setting": "[5]", "result": "down-regulated"}, {"measurement": "cell apoptosis", "setting": "[5]", "result": "down-regulated"}]}
{"smiles": "[N]=O", "note": "[NO, nitric oxide]", "values": [{"measurement": "lung injury in polymicrobial sepsis", "setting": "[2]", "result": "significantly attenuated"}, {"measurement": "lung collagen content after recovery", "setting": "[6]; after a 3-day recovery period in RA", "result": "significant decline"}, {"measurement": "lung collagen accumulation", "setting": "[6]", "result": "increases"}, {"measurement": "survival in high O2 exposure", "setting": "[7]", "result": "increase survival"}, {"measurement": "collagen synthesis", "setting": "[8]", "result": "inhibiting"}, {"measurement": "fibroblast number and differentiation", "setting": "[8]", "result": "reducing"}, {"measurement": "LPS-induced pulmonary early and late NF-κB activation", "setting": "[4]", "result": "inhibited"}, {"measurement": "effect on HIF", "setting": "[9]; high doses and after 30 minutes", "result": "inhibitory"}, {"measurement": "effect on HIF", "setting": "[9]; low dose, for 30 minutes, during hypoxia", "result": "stimulates"}, {"measurement": "lung injury", "setting": "[5]", "result": "significantly improved"}, {"measurement": "pulmonary inflammation", "setting": "[5]", "result": "down-regulated"}, {"measurement": "cell apoptosis", "setting": "[5]", "result": "down-regulated"}]}
{"smiles": "COC(=O)[C@@H](N)CCCNC(=N)N[N+](=O)[O-]", "note": "[Nw-nitro-1-arginine methyl ester]", "values": [{"measurement": "survival of exposure to >95% O2", "setting": "[10]", "result": "significantly fewer survived"}]}
{"smiles": "O=O", "note": "[O2, oxygen]", "values": [{"measurement": "lung collagen accumulation", "setting": "[6]", "result": "increases"}]}
